In ChEMBL document CHEMBL6109084 (Eur J Med Chem, 2025):

Legend:
Coagulation factor XI = Coagulation factor XI (Homo sapiens, UniProt P03951); assay: Inhibition of human FXIa using p-Glu-Pro-Arg-pNA.HCl as substrate incubated for 30 mins followed by substrate addition and measured after 60 mins by microplate reader analysis
Plasma = assay: Anticoagulant activity in citrated human plasma assessed as prolongation of activated partial thromboplastin time at 1 uM incubated for 3 mins by aPTT reagent based automated coagulometric analysis relative to control; assay type: functional; conditions: 0.05 h

Chain of Coagulation factor XI (P03951 19-387 limits assumed): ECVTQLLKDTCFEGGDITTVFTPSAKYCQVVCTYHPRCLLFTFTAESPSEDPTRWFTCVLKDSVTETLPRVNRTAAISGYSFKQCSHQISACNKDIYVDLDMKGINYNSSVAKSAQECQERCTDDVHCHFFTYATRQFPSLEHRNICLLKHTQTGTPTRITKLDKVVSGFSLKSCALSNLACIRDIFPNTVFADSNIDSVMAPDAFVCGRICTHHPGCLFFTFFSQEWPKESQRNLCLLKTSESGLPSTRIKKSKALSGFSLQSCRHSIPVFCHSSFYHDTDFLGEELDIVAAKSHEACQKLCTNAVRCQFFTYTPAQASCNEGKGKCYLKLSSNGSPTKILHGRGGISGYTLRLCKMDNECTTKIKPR
Chain of Coagulation factor XI (P03951 388-625 limits assumed): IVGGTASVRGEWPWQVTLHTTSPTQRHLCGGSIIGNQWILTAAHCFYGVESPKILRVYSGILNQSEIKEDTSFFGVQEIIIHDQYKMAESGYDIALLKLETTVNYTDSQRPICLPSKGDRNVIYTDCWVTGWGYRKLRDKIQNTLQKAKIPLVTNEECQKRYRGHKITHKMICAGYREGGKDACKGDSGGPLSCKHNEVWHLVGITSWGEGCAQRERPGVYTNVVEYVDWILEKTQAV

`COc1ccc(Cn2cc(OC)c(-c3cc(Cl)ccc3-n3cnnn3)cc2=O)cc1-c1ccc(N)nc1` gave an IC50 (Coagulation factor XI) of 1.7 nM and an Activity (Plasma) of 50.4%.

`COc1cn(Cc2cccc(-c3ccc(C(N)=O)cc3F)c2)c(=O)cc1-c1cc(Cl)ccc1-n1cnnn1` was tested, and the IC50 (Coagulation factor XI) was 3 nM and the Activity (Plasma) was 82.8%.

In the case of `COc1cn(Cc2cccc(-c3ccc4[nH]ncc4c3)c2)c(=O)cc1-c1cc(Cl)ccc1-n1cnnn1`, the IC50 (Coagulation factor XI) is reported as 4 nM and the Activity (Plasma) is reported as 38.7%.

Work on `COc1c[nH]c(=O)cc1-c1cc(Cl)ccc1-n1cnnn1` yielded an IC50 (Coagulation factor XI) of 1100 nM.

For `COc1cn(Cc2cccc(-c3ccc(N(C)C)cc3)c2)c(=O)cc1-c1cc(Cl)ccc1-n1cnnn1`, the IC50 (Coagulation factor XI) was > 500 nM.

In the case of `COc1cn(Cc2ccc(F)c(-c3ccc(N)nc3)c2)c(=O)cc1-c1cc(Cl)ccc1-n1cc(Cl)nn1`, the IC50 (Coagulation factor XI) is reported as 3.2 nM and the Activity (Plasma) is reported as 55.4%.

`COc1cn(Cc2cccc(-c3ccc(F)cc3F)c2)c(=O)cc1-c1cc(Cl)ccc1-n1cnnn1` gave an IC50 (Coagulation factor XI) of 15.1 nM.

`COc1cn(Cc2cccc(-c3ccncc3)c2)c(=O)cc1-c1cc(Cl)ccc1OC(F)F` was tested, and the IC50 (Coagulation factor XI) was > 500 nM.

For `COc1ccc(-c2cccc(Cn3cc(OC)c(-c4cc(Cl)ccc4-n4cnnn4)cc3=O)c2)cc1`, the IC50 (Coagulation factor XI) was 129 nM.

With `COc1cn(Cc2ccc3ccccc3c2)c(=O)cc1-c1cc(Cl)ccc1-n1cnnn1` the IC50 (Coagulation factor XI) was 39 nM.

`COc1cn(Cc2ccc(-c3ccc(O)cc3)cc2)c(=O)cc1-c1cc(Cl)ccc1-n1cnnn1` was tested, and the IC50 (Coagulation factor XI) was 203 nM.

In the case of `COc1cn(Cc2cccc(-c3cnc(N)nc3)c2)c(=O)cc1-c1cc(Cl)ccc1-n1cnnn1`, the IC50 (Coagulation factor XI) is reported as 11.5 nM.

In the case of `COc1cn(Cc2cccc(-c3ccc(N)nc3)c2)c(=O)cc1-c1cc(Cl)ccc1C(F)F`, the IC50 (Coagulation factor XI) is reported as > 1000 nM.

`CCC(c1cccc(-c2ccc(N)nc2)c1)n1cc(OC)c(-c2cc(Cl)ccc2-n2cc(Cl)nn2)cc1=O` (centres undefined) was tested, and the IC50 (Coagulation factor XI) was 1.6 nM and the Activity (Plasma) was 55.6%.

For `COc1cn(Cc2ccc(F)c(-c3ccc4[nH]ncc4c3)c2)c(=O)cc1-c1cc(Cl)ccc1-n1cnnn1`, the IC50 (Coagulation factor XI) was 1.3 nM and the Activity (Plasma) was 57.1%.

In the case of `COc1cn(Cc2ccc(F)c(-c3ccc(C(N)=O)cc3F)c2)c(=O)cc1-c1cc(Cl)ccc1-n1cnnn1`, the IC50 (Coagulation factor XI) is reported as 4.7 nM and the Activity (Plasma) is reported as 47%.

Molecule `CNC(=O)c1ccc(-c2cccc(Cn3cc(OC)c(-c4cc(Cl)ccc4-n4cnnn4)cc3=O)c2)cc1` has an IC50 (Coagulation factor XI) of 5.9 nM and an Activity (Plasma) of 45.4%.

`COc1cn(C(C)c2cccc(-c3ccc(N)nc3)c2)c(=O)cc1-c1cc(Cl)ccc1-n1cnnn1` (centres undefined) showed an IC50 (Coagulation factor XI) of 0.54 nM and an Activity (Plasma) of 74.3%.

`COc1cn(Cc2ccnc(-c3ccncc3)c2)c(=O)cc1-c1cc(Cl)ccc1-n1cnnn1` gave an IC50 (Coagulation factor XI) of 2.3 nM and an Activity (Plasma) of 113.1%.

Work on `COc1cn(Cc2cccc(-c3ccc(N)nc3F)c2)c(=O)cc1-c1cc(Cl)ccc1-n1cnnn1` yielded an IC50 (Coagulation factor XI) of 0.39 nM and an Activity (Plasma) of 103.4%.

`COc1cn(Cc2ccnc(-c3ccc(N)nc3)c2)c(=O)cc1-c1cc(Cl)ccc1-n1cnnn1` showed an IC50 (Coagulation factor XI) of 0.33 nM and an Activity (Plasma) of 112.5%.

Molecule `COc1cn(Cc2ccc(F)c(-c3ccncc3)c2)c(=O)cc1-c1cc(Cl)ccc1-n1cc(Cl)nn1` has an IC50 (Coagulation factor XI) of 4.9 nM and an Activity (Plasma) of 74.7%.

`COc1cn(C(C)c2ccc(F)c(-c3ccc(N)nc3)c2)c(=O)cc1-c1cc(Cl)ccc1-n1cnnn1` (centres undefined) was tested, and the IC50 (Coagulation factor XI) was 1.4 nM and the Activity (Plasma) was 14.8%.

`COc1cn(Cc2cccc(-c3ccc(O)cc3)c2)c(=O)cc1-c1cc(Cl)ccc1-n1cnnn1` was tested, and the IC50 (Coagulation factor XI) was 1.7 nM and the Activity (Plasma) was 26.6%.

Molecule `COc1cn(Cc2cc(-c3cnc(N)nc3)ccn2)c(=O)cc1-c1cc(Cl)ccc1-n1cnnn1` has an IC50 (Coagulation factor XI) of 95.3 nM.

`COc1cn(C(C)c2cccc(-c3ccncc3)c2)c(=O)cc1-c1cc(Cl)ccc1-n1cnnn1` (centres undefined) was tested, and the IC50 (Coagulation factor XI) was 2.4 nM and the Activity (Plasma) was 80.1%.

For `COc1cn(Cc2cccc(-c3ccc(NC(C)=O)cc3)c2)c(=O)cc1-c1cc(Cl)ccc1-n1cnnn1`, the IC50 (Coagulation factor XI) was 6.4 nM and the Activity (Plasma) was 50.8%.

For `COc1cn(Cc2cccc(-c3ccc(N)nc3)c2)c(=O)cc1-c1cc(Cl)ccc1OC(F)F`, the IC50 (Coagulation factor XI) was > 500 nM.

For `CCC(c1cc(-c2ccc(N)nc2F)ccn1)n1cc(OC)c(-c2cc(Cl)ccc2-n2cnnn2)cc1=O` (racemic), the IC50 (Coagulation factor XI) was 0.39 nM and the Activity (Plasma) was 97.2%.

With `COc1cn(Cc2cccc(-c3ccncc3)c2)c(=O)cc1-c1cc(Cl)ccc1-n1cc(Cl)nn1` the IC50 (Coagulation factor XI) was 4.2 nM and the Activity (Plasma) was 78.1%.

`COc1cn(Cc2ccc(F)c(-c3ccncc3)c2)c(=O)cc1-c1cc(Cl)ccc1-n1cnnn1` was tested, and the IC50 (Coagulation factor XI) was 1.8 nM and the Activity (Plasma) was 129.8%.

`COc1ccc(Cn2cc(OC)c(-c3cc(Cl)ccc3-n3cnnn3)cc2=O)cc1-c1ccncc1` was tested, and the IC50 (Coagulation factor XI) was 2.1 nM and the Activity (Plasma) was 70%.

`COc1cn(Cc2cccc(-c3ccc(F)cc3)c2)c(=O)cc1-c1cc(Cl)ccc1-n1cnnn1` showed an IC50 (Coagulation factor XI) of 10.1 nM.

`CC[C@H](c1cc(-c2ccc(N)nc2F)ccn1)n1cc(OC)c(-c2cc(Cl)ccc2-n2cnnn2)cc1=O` showed an IC50 (Coagulation factor XI) of 6.7 nM and an Activity (Plasma) of 56.3%.

With `COc1cn(Cc2cccc(-c3ccncc3)c2)c(=O)cc1-c1cc(Cl)ccc1C(F)F` the IC50 (Coagulation factor XI) was > 1000 nM.

`COc1cn(Cc2ccc(F)c(-c3ccc(O)cc3)c2)c(=O)cc1-c1cc(Cl)ccc1-n1cnnn1` showed an IC50 (Coagulation factor XI) of 1.4 nM and an Activity (Plasma) of 63.2%.

Molecule `COc1cn(Cc2ccc(F)c(-c3ccc(NC(C)=O)cc3)c2)c(=O)cc1-c1cc(Cl)ccc1-n1cnnn1` has an IC50 (Coagulation factor XI) of 1.9 nM and an Activity (Plasma) of 86.8%.

Work on `CNC(=O)c1ccc(-c2cc(Cn3cc(OC)c(-c4cc(Cl)ccc4-n4cnnn4)cc3=O)ccc2F)cc1` yielded an IC50 (Coagulation factor XI) of 5.2 nM and an Activity (Plasma) of 49.9%.

In the case of `COc1cn(Cc2cccc(-c3ccc(N)nc3)c2)c(=O)cc1-c1cc(Cl)ccc1-n1cc(Cl)nn1`, the IC50 (Coagulation factor XI) is reported as 2.2 nM and the Activity (Plasma) is reported as 82.8%.

Work on `COc1cn(Cc2cccc(-c3ccc(N)nc3)c2)c(=O)cc1-c1cc(Cl)ccc1-n1cnnn1` yielded an IC50 (Coagulation factor XI) of 0.35 nM and an Activity (Plasma) of 143.3%.

`COc1cn(Cc2ccc(F)c(-c3ccc(N)nc3)c2)c(=O)cc1-c1cc(Cl)ccc1-n1cnnn1` showed an IC50 (Coagulation factor XI) of 0.69 nM and an Activity (Plasma) of 128.5%.
